How the values were obtained:
[1] = Volume of distribution at steady state in human administered 1 to 12 g doses with 2 to 3.5 hrs iv infusion; assay type: ADME, organism-based; settings: in vivo, read-out: Vdss
[2] = Clearance in human at 200 ug; assay type: ADME, organism-based; settings: in vivo
[3] = Volume of distribution at steady state in human; settings: in vivo
[4] = Volume of distribution at steady state in human at 0.2 mg, iv; assay type: ADME, organism-based; settings: in vivo, read-out: Vdss
[5] = Volume of distribution at steady state in human at 130 mg administered 90 mins infusion; assay type: ADME, organism-based; settings: in vivo, iv, read-out: Vdss
[6] = Volume of distribution at steady state in human at 15 ng/kg/min, iv administered 150 mins infusion; assay type: ADME, organism-based; settings: in vivo, read-out: Vdss
[7] = Mean residence time in human given 31 administration across 6 doses 2.5 to 25 mg administered 30 mins infusion each dose separated by 13 days; assay type: ADME, organism-based; settings: in vivo, iv
[8] = Half life in human given 31 administration across 6 doses 2.5 to 25 mg administered 30 mins infusion each dose separated by 13 days; assay type: ADME, organism-based; settings: in vivo, iv
[9] = Mean residence time in human administered three way cross over study in 11, 10 and 12 healthy subjects at 5, 10, 15 mg dose respectively as 1 hr infusion; assay type: ADME, organism-based; settings: in vivo, intravenous
[10] = Clearance in human administered three way cross over study in 11, 10 and 12 healthy subjects at 5, 10, 15 mg dose respectively as 1 hr infusion; assay type: ADME, organism-based; settings: in vivo, intravenous
[11] = Half life in human administered three way cross over study in 11, 10 and 12 healthy subjects at 5, 10, 15 mg dose respectively as 1 hr infusion; assay type: ADME, organism-based; settings: in vivo, intravenous
[12] = Clearance in human given 31 administration across 6 doses 2.5 to 25 mg administered 30 mins infusion each dose separated by 13 days; assay type: ADME, organism-based; settings: in vivo, iv
[13] = Volume of distribution at steady state in human at 2.8 mg, iv; assay type: ADME, organism-based; settings: in vivo, read-out: Vdss
[14] = Volume of distribution at steady state in human at 2.5 mg, iv administered as bolus dose; assay type: ADME, organism-based; settings: in vivo, read-out: Vdss
[15] = Volume of distribution at steady state in human at 0.149 mg/kg, iv; assay type: ADME, organism-based; set-up: dose 0.149 mg/kg, route intravenous; settings: in vivo, read-out: Vdss
[16] = Volume of distribution at steady state in human at 100 mg, iv; assay type: ADME, organism-based; settings: in vivo, read-out: Vdss
[17] = Volume of distribution at steady state in human at 5 mg, iv; assay type: ADME, organism-based; settings: in vivo, read-out: Vdss
[18] = Volume of distribution at steady state in human dosed 1 hr iv infusion; settings: in vivo
[19] = Volume of distribution at steady state in human at 10 mg, iv; assay type: ADME, organism-based; settings: in vivo, read-out: Vdss
[20] = Volume of distribution at steady state in human administered three sequential 4-h infusion at 1, 5 and 15 mg/hr; assay type: ADME, organism-based; settings: in vivo, iv, read-out: Vdss
[21] = Volume of distribution at steady state in human at 25 mg, iv; assay type: ADME, organism-based; settings: in vivo, read-out: Vdss
[22] = Volume of distribution at steady state in human at 1 mg/kg; assay type: ADME, organism-based; set-up: dose 1 mg/kg; settings: in vivo, read-out: Vdss
[23] = Half life in human at 2 mg, iv; assay type: ADME, organism-based; settings: in vivo
[24] = Clearance in human at 2 mg, iv; assay type: ADME, organism-based; settings: in vivo
[25] = Mean residence time in human at 2 mg, iv; assay type: ADME, organism-based; settings: in vivo
[26] = Volume of distribution in human at 100 mg administered 30 mins infusion; assay type: ADME, organism-based; settings: in vivo, iv
[27] = Volume of distribution at steady state in human at 150 mg, iv; assay type: ADME, organism-based; settings: in vivo, read-out: Vdss
[28] = Volume of distribution at steady state in human at 1 mg/kg, iv administered 20 mins infusion; assay type: ADME, organism-based; set-up: dose 1 mg/kg, route intravenous; settings: in vivo, read-out: Vdss
[29] = Volume of distribution at steady state in human at 50 mg, iv; assay type: ADME, organism-based; settings: in vivo, read-out: Vdss
[30] = Volume of distribution at steady state in human at 0.1 mg/kg administered 15 mins infusion; assay type: ADME, organism-based; set-up: dose 0.1 mg/kg; settings: in vivo, iv, read-out: Vdss
[31] = Total clearance in human at 0.1 mg/kg administered 15 mins infusion; assay type: ADME, organism-based; set-up: dose 0.1 mg/kg; settings: in vivo, iv

**Q.** For `Nc1ccn([C@@H]2O[C@H](CO)[C@@H](O)[C@@H]2O)c(=O)n1` [CYTARABINE], which Vd [1] is on record?
**A.** 0.67 L/kg

**Q.** For `CC(=O)Nc1ccc(C2=NNC(=O)C[C@H]2C)cc1`, which clearance [2] is on record?
**A.** 33.3 mL/min

**Q.** What about the Vd [3] of the same molecule?
**A.** 2.38 L/kg

**Q.** Which Vd [4] does the source give for `C[C@@H]1CN([C@H]2CC[C@](C#N)(c3ccc(F)cc3)CC2)CC[C@]1(C(=O)O)c1ccccc1` [LEVOCABASTINE] here?
**A.** 1.17 L/kg

**Q.** For `O=C(O)c1ccc(-n2nc(-c3ccccc3O)nc2-c2ccccc2O)cc1` [DEFERASIROX], which Vd [5] is on record?
**A.** 0.2 L/kg

**Q.** With `CCCCC[C@H](O)CC[C@@H]1[C@H]2Cc3cccc(OCC(=O)O)c3C[C@H]2C[C@H]1O` [TREPROSTINIL] as the molecule, how does the Vd [6] read?
**A.** 0.23 L/kg

**Q.** What does the source list for `CN(c1nc2ccccc2s1)C1CCN(C[C@H](O)COc2ccc(F)c(F)c2)CC1` [LUBELUZOLE]?
**A.** MRT [7]: 23.3 h; half-life [8]: 19.8 h; MRT [9]: 28.7 h; clearance [10]: 1.8 mL/min/kg; half-life [11]: 23.5 h; clearance [12]: 1.54 mL/min/kg

**Q.** For `CC(C)Oc1ccccc1N1CCN(Cc2cccc(C(=O)N3CCCCC3)c2)CC1` [MAZAPERTINE], which Vd [13] is on record?
**A.** 1.54 L/kg

**Q.** For `OCCN1CCN(CCCN2c3ccccc3Sc3ccc(C(F)(F)F)cc32)CC1` [FLUPHENAZINE], which Vd [14] is on record?
**A.** 2.9 L/kg

**Q.** Which Vd [15] does the source give for `Cc1nc(=O)c(C#N)c(NCc2cccnc2)[nH]1` [PELRINONE] here?
**A.** 0.39 L/kg

**Q.** For `O=C(O)CCCCO/N=C(/c1cccnc1)c1cccc(C(F)(F)F)c1` [RIDOGREL], which Vd [16] is on record?
**A.** 0.43 L/kg

**Q.** Which Vd [17] does the source give for `Cc1nc2sccn2c(=O)c1CCN1CCC(=C(c2ccc(F)cc2)c2ccc(F)cc2)CC1` [RITANSERIN] here?
**A.** 1.41 L/kg

**Q.** Which Vd at 1 h [18] does the source give for `C[C@]12CC[C@@H]3c4ccc(O)cc4C[C@@H](CCCCCCCCC[S+]([O-])CCCC(F)(F)C(F)(F)F)[C@H]3[C@@H]1CC[C@@H]2O` (stereo partly drawn) [FULVESTRANT] here?
**A.** 4.15 L/kg

**Q.** For `CN(c1nc2ccccc2s1)C1CCN(CC(O)COc2ccc(F)cc2)CC1` (stereo not drawn) [SABELUZOLE], which Vd [19] is on record?
**A.** 5.5 L/kg

**Q.** With `COc1ccccc1Oc1c(NS(=O)(=O)c2ccc(C)cn2)nc(-c2ccnc(-c3nnn[nH]3)c2)nc1OCCO` [CLAZOSENTAN] as the molecule, how does the Vd [20] read?
**A.** 0.23 L/kg

**Q.** For `CC(=O)CC(c1ccc([N+](=O)[O-])cc1)c1c(O)c2ccccc2oc1=O` (stereo not drawn) [ACENOCOUMAROL], which Vd [21] is on record?
**A.** 0.24 L/kg

**Q.** For `CC(C)(N)CC(=O)N[C@@H]1CCc2ccccc2N(Cc2ccc(-c3ccccc3-c3nnn[nH]3)cc2)C1=O`, which Vd [22] is on record?
**A.** 0.2 L/kg

**Q.** Which results are given for `CCc1nc2c(N)nc3ccccc3c2n1CCCCNS(C)(=O)=O` [CPG-52852]?
**A.** half-life [23]: 7.1 h; clearance [24]: 7.7 mL/min/kg; MRT [25]: 4.7 h

**Q.** Which Vd [26] does the source give for `CC1(C)[C@@H](O[C@H]2O[C@H](C(=O)O)[C@@H](O)[C@H](O)[C@H]2O[C@H]2O[C@@H](C(=O)O)[C@H](O)[C@@H](O)[C@@H]2O)CC[C@]2(C)[C@H]3C(=O)C=C4[C@@H]5C[C@@](C)(C(=O)O)CC[C@]5(C)CC[C@@]4(C)[C@]3(C)CC[C@@H]12` [ISOGLYCIRRHIZINATE] here?
**A.** 0.05 L/kg

**Q.** With `CO[C@H]1C[C@H](O[C@H]2[C@H](C)[C@@H](O[C@@H]3O[C@H](C)C[C@H](N(C)C)[C@H]3O)[C@@H](C)C[C@@]3(CO3)C(=O)[C@H](C)[C@@H](O)[C@@H](C)[C@@H](C)OC(=O)[C@@H]2C)O[C@@H](C)[C@@H]1O` [OLEANDOMYCIN] as the molecule, how does the Vd [3] read?
**A.** 0.77 L/kg

**Q.** For `COCCOC[C@H](CC1(C(=O)N[C@H]2CC[C@@H](C(=O)O)CC2)CCCC1)C(=O)O` [CANDOXATRILAT], which Vd [27] is on record?
**A.** 0.25 L/kg

**Q.** With `C[C@@H]1[C@H](O)[C@@H](C)/C=C/C=C/C=C/C=C/C=C/C=C/C=C/[C@H](O[C@@H]2O[C@H](C)[C@@H](O)[C@H](N)[C@@H]2O)C[C@@H]2O[C@](O)(C[C@@H](O)C[C@@H](O)[C@H](O)CC[C@@H](O)C[C@@H](O)CC(=O)O[C@H]1C)C[C@H](O)[C@H]2C(=O)O` [AMPHOTERICIN B] as the molecule, how does the Vd [3] read?
**A.** 0.62 L/kg

**Q.** For `CC(=O)N(CCC(CCN1CCCCC1)(C(N)=O)c1ccccc1Cl)C(C)C` (stereo not drawn) [BIDISOMIDE], which Vd [28] is on record?
**A.** 2.6 L/kg

**Q.** For `COC(=O)c1cnc2n1CCc1ccccc1C2=C1CCN(CCc2ccc(OCc3ccc4ccccc4n3)cc2)CC1`, which Vd [29] is on record?
**A.** 6.03 L/kg

**Q.** What does the source list for `Cc1nccn1CCC(C(N)=O)(c1ccccc1)c1ccccc1` [IMIDAFENACIN]?
**A.** Vd [30]: 1.51 L/kg; clearance [31]: 492 mL/min

— ChEMBL document CHEMBL1158480, “In silico prediction of volume of distribution in human using linear and nonlinear models on a 669 compound data set” (J Med Chem, 2009)
